Residues, ends and D or L forms follow the SMILES beside them. *: point of attachment. Biotin = O=C1N[C@H]2[C@H](CS[C@H]2CCCCC(=O)*)N1
B1: Vpr-T: full length HIV-1 89.6-Vpr in a 6-his C-term tagged form, expressed in bacteria (protein)
chain: MEQAPEDQGPQREPYNDWTLELLEELKNEAVRHFPRIWLHSLGQHIYETYGDTWTGVEALIRILQQLLFIHFRIGCRHSRIGIIQQRRTRNGASKS
modifications: left off: His6, C-terminal, kept
notes: full length HIV-1 89.6-Vpr in a 6-his C-term tagged form, expressed in bacteria

Columns and labels:
HeLa cells = assay: Cell penetration and localization of biotinylated peptides; assay type: cell-based, human; conditions: 150 µM biotinylated peptide, 2 h, 37°C, streptavidin-peroxydase/DAB staining, microscopy; for Cell penetration: fixation
Description: A total of 4×10^4 exponentially proliferating HeLa cells growing in a sub confluent monolayer were seeded per well on a Lab-Tek and incubated at 37°C, 5% CO2. Biotinylated peptides were added 48 h later to the cells at different concentrations for different periods of time. Cells were washed twice in PBS, and fixed with absolute ethanol for 10 min at –20°C before addition of 100 µM of streptavidin HRP conjugate After 30 min incubation at 37°C, cells were rinsed twice in PBS and incubated with DAB for around 10 min. Cells were washed in distilled water and mounted for microscopic examination.

PP2A1 holoenzyme = assay: Affinity chromatography of PP2A1 on Vpr-T-agarose column, phosphorylase a phosphatase assay; assay type: binding, pig; conditions: 16 µg PP2A1 on 1 mL column, buffer C pH 7.4, linear gradient to 1 M NaCl, phosphorylase a as substrate
Description: Figure 1 Analysis of HIV-1 Vpr and PP2A1 interaction. (A) 16 µg of PP2A1 holoenzyme purified from pig brain was loaded on a 1 mL HIV-1 strain 89.6-Vpr-T-agarose column equilibrated in buffer C (25 mM TrisHCl pH 7.4, 50 mM NaCl, 0.1 mM EDTA). The column was washed with 10 mL of buffer C and then developed with a 18 mL linear gradient of buffer C to buffer C plus 1 M NaCl. Phosphatase activity of collected fractions was assayed with phosphorylase a as substrat (1U = 1 pm of phosphate liberated by 10 µL of fraction/min). A major peak of phosphatase activity was detected, eluting at 0.3 M NaCl. (B) ECL revelation of PP2A binding assay on cellulose-bound Vpr peptides. 43 overlapping dodecapeptides with a two-amino acid shift scanning the entire 89.6-Vpr sequence (accession number: AAA81039) were synthesized on a cellulose membrane. The membrane was incubated with PP2A1 holoenzyme (upper panel) or PP2A-A subunit (lower panel) and subsequently with anti-PP2A antibodies followed by peroxydase-labelled anti-guinea pig antibodies. (C) Sequence of HIV-1 Vpr protein: sequence of the two PP2A-A binding sites are indicated in bold. These sequences correspond to overlapping sequences of positive dodecapeptides 29 to 32 (PP2A-A subunit incubation) or 39 to 41 (PP2A1 incubation). (D) Co-precipitation of DPT-Vpr peptides with PP2A1 in HeLa cell extracts. […]

Row | Molecule | Cell penetration (HeLa cells) | Intra-cellular localization (HeLa cells) | NaCl concentration at which bound PP2A1 phosphatase activity elutes from the Vpr-T-agarose column (PP2A1 holoenzyme)
1 | CC[C@H](C)[C@H](NC(=O)CNC(=O)[C@@H](NC(=O)[C@H](CCCNC(=N)N)NC(=O)[C@H](CO)NC(=O)[C@H](Cc1c[nH]cn1)NC(=O)[C@H](CCCNC(=N)N)NC(=O)CCCC[C@@H]1SC[C@@H]2NC(=O)N[C@@H]21)[C@@H](C)CC)C(=O)N[C@H](C(=O)N[C@@H](CCC(N)=O)C(=O)N[C@@H](CCC(N)=O)C(=O)N[C@@H](CCCNC(=N)N)C(=O)N[C@@H](CCCNC(=N)N)C(=O)N[C@H](C(=O)N[C@@H](CCCNC(=N)N)C(=O)N[C@@H](CC(N)=O)C(=O)NCC(=O)O)[C@@H](C)O)[C@@H](C)CC [DPT-Vpr1] | penetrate into HeLa cells | homogeneous cytoplasm labeling | –
2 | CC[C@H](C)[C@H](NC(=O)CNC(=O)[C@@H](NC(=O)[C@H](C)NC(=O)[C@H](CO)NC(=O)[C@H](Cc1c[nH]cn1)NC(=O)[C@H](C)NC(=O)CCCC[C@@H]1SC[C@@H]2NC(=O)N[C@@H]21)[C@@H](C)CC)C(=O)N[C@H](C(=O)N[C@@H](CCC(N)=O)C(=O)N[C@@H](CCC(N)=O)C(=O)N[C@@H](CCCNC(=N)N)C(=O)N[C@@H](CCCNC(=N)N)C(=O)N[C@@H](C)C(=O)N[C@@H](CCCNC(=N)N)C(=O)N[C@@H](CC(N)=O)C(=O)NCC(=O)O)[C@@H](C)CC [DPT-Vpr3] (Biotin-AHSAIGIIQQRRARNG-OH) | penetrate into HeLa cells | homogeneous cytoplasm labeling | –
3 | N=C(N)NCCC[C@H](NC(=O)[C@H](CCCNC(=N)N)NC(=O)[C@H](CCC(N)=O)NC(=O)[C@H](CCCNC(=N)N)NC(=O)[C@H](CCCNC(=N)N)NC(=O)[C@H](CCCCN)NC(=O)[C@H](CCCCN)NC(=O)[C@H](CCCNC(=N)N)NC(=O)CNC(=O)[C@H](Cc1ccc(O)cc1)NC(=O)CCCC[C@@H]1SC[C@@H]2NC(=O)N[C@@H]21)C(=O)O [Tat, reference compound] (Biotin-YGRKKRRQRR-OH) | penetrate into HeLa cells | homogeneous cytoplasm labeling | –
4 | B1 | – | – | 0.3 M NaCl

Reference: PMC2967473, “PP2A1 Binding, Cell Transducing and Apoptotic Properties of Vpr77–92: A New Functional Domain of HIV-1 Vpr Proteins” (PLoS ONE, 2010)
